This assay has as its target mGluR5 receptor (Sus scrofa, UniProt I3LUI7). Kind of assay: Affinity for the mGluR5 receptor: inhibition of 3[H]-MPEP binding in pig brain homogenate. As to conditions: for pIC50: 3[H]-MPEP binding. The method in brief: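 Test compounds were screened at 10 μM for displacement of 5 nM [3H]-MPEP from pig brain homogenate (450 μg protein, pH 8.0 Hepes buffer) over 60 min at room temperature. After filtration, scintillation counting gave the read-out. 10 μM unlabelled MPEP set nonspecific binding.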

pIC50: −log10 of the molar value. Structures can show the parent of a compound that is named as a salt.

Chain of mGluR5 receptor (I3LUI7 19-1212): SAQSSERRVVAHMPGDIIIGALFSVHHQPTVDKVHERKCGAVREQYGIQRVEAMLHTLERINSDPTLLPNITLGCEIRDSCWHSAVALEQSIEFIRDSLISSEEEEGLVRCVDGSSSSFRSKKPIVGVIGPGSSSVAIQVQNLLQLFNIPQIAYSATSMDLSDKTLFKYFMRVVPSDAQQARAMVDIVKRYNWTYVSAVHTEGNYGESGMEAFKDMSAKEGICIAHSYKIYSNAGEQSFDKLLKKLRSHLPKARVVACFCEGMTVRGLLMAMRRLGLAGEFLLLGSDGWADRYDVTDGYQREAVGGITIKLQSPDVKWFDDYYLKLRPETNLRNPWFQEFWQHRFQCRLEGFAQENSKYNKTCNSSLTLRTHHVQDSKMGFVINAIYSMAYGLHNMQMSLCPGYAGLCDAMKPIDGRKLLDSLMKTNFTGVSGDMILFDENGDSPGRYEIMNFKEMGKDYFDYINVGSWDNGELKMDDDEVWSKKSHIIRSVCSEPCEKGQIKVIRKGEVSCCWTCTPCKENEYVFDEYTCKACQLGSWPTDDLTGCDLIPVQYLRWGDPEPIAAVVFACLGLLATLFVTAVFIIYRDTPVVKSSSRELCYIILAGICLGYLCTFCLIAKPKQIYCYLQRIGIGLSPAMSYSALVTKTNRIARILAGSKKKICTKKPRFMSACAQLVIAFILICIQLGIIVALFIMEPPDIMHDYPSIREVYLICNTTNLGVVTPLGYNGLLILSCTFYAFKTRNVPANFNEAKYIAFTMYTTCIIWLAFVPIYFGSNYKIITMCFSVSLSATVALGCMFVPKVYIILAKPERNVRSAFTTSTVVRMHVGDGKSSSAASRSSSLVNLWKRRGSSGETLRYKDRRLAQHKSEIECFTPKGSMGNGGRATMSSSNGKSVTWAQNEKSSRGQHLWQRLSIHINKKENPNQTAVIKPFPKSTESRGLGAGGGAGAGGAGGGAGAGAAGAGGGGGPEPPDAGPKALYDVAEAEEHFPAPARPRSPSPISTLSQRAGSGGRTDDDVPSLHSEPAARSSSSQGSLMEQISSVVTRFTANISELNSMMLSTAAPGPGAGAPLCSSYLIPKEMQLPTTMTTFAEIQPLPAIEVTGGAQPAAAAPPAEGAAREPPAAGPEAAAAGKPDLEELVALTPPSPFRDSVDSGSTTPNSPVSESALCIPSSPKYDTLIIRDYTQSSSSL

Broadly, the pIC50 is the negative decadic logarithm of the IC50, by convention in mol/L. The compound `C(#Cc1ccc(-c2nc3cnccn3c2N2CCCC2)s1)c1ccccc1` [Example 99, 2-(5-(phenylethynyl)thiophen-2-yl)-3-(pyrrolidin-1-yl)imidazo[1,2-a]pyrazine hydrochloride] showed a pIC50 of 6.27.
Same read-out and setting: the result for `CC(C)(C)Nc1c(-c2ccc(C#Cc3ccc(F)cc3)s2)nc2cnccn12` [Example 100, N-tert-butyl-2-(5-((4-fluorophenyl)ethynyl)thiophen-2-yl)imidazo[1,2-a]pyrazin-3-amine hydrochloride] reads 6.47.
`Cc1ccn2c(NC(C)(C)C)c(-c3ccc(C#Cc4ccccc4)s3)nc2c1` [Example 101, N-tert-butyl-7-methyl-2-(5-(phenylethynyl)thiophen-2-yl)imidazo[1,2-a]pyridin-3-amine] had a pIC50 of 5.61.
The same measure, in the same setting: the result for `Cc1cccc2nc(-c3ccc(C#Cc4ccccc4)s3)c(NC(C)(C)C)n12` [Example 102, N-tert-butyl-5-methyl-2-(5-(phenylethynyl)thiophen-2-yl)imidazo[1,2-a]pyridin-3-amine] reads 5.05.
Take `CC(C)(C)CC(C)(C)Nc1c(-c2cccc(C#Cc3ccccn3)c2)nc2c(Cl)cc(C(F)(F)F)cn12` [Example 103, 8-chloro-2-(3-(pyridin-2-ylethynyl)phenyl)-6-(trifluoromethyl)-N-(2,4,4-trimethylpentan-2-yl)imidazo[1,2-a]pyridin-3-amine]: the inhibition at 10 µM (10 μM compound, 5 nM 3[H]-MPEP, read-out: mGluR5 receptor inhibition of ^3[H]-MPEP binding [10 μM] in % at a concentration of the example compounds of 10 μM) turned out to be 66%.
As to `CC(C)(C)Nc1c(-c2ccc(C#Cc3cccc(F)c3)s2)nc2cnccn12` [Example 104, N-tert-butyl-2-(5-((3-fluorophenyl)ethynyl)thiophen-2-yl)imidazo[1,2-a]pyrazin-3-amine hydrochloride], the negative logarithm of the IC50 (pIC50) is 7.04.
Still for that read-out and setting: for `CC(C)(C)Nc1c(-c2ccc(C#Cc3ccccc3F)s2)nc2cnccn12` [Example 105, N-tert-butyl-2-(5-((2-fluorophenyl)ethynyl)thiophen-2-yl)imidazo[1,2-a]pyrazin-3-amine hydrochloride] the value was 6.82; for `COC(=O)c1nccn2c(NC(C)(C)C)c(-c3ccc(C#Cc4ccccc4)s3)nc12` [Example 106, methyl-3-(tert-butylamino)-2-(5-(phenylethynyl)thiophen-2-yl)imidazo[1,2-a]pyrazine-8-carboxylate], 6.68; for `CC(C)(C)Nc1c(-c2ccc(C#Cc3cnccn3)s2)nc2cnccn12` [Example 107, N-tert-butyl-2-(5-(pyrazin-2-ylethynyl)thiophen-2-yl)imidazo[1,2-a]pyrazin-3-amine], 7.28.
`CC(C)(C)Nc1c(-c2ccc(C#Cc3ccc(N)cc3)s2)nc2cnccn12` [Example 108, 2-(5-((4-aminophenyl)ethynyl)thiophen-2-yl)-N-tert-butylimidazo[1,2-a]pyrazin-3-amine] showed a pIC50 of 5.91.
Same read-out and setting: for `CC(C)Nc1c(-c2ccc(C#Cc3ccccc3)s2)nc2cnccn12` [Example 109, N-isopropyl-2-(5-(phenylethynyl)thiophen-2-yl)imidazo[1,2-a]pyrazin-3-amine] the value was 6.52; for `CC(C)(C)Nc1c(-c2cccc(C#Cc3ccccn3)c2)nc2cnccn12` [Example 111, N-tert-butyl-2-(3-(pyridin-2-ylethynyl)phenyl)imidazo[1,2-a]pyrazin-3-amine], 5.86; for `COc1ccccc1C#Cc1ccc(-c2nc3cnccn3c2NC(C)(C)C)s1` [Example 112, N-tert-butyl-2-(5-((2-methoxyphenyl)ethynyl)thiophen-2-yl)imidazo[1,2-a]pyrazin-3-amine hydrochloride], 5.12.
Same read-out and setting: the result for `COc1cccc(C#Cc2ccc(-c3nc4cnccn4c3NC(C)(C)C)s2)c1` [Example 113, N-tert-butyl-2-(5-((3-methoxyphenyl)ethynyl)thiophen-2-yl)imidazo[1,2-a]pyrazin-3-amine hydrochloride] reads 7.12; that for `COc1ccc(C#Cc2ccc(-c3nc4cnccn4c3NC(C)(C)C)s2)cc1` [Example 114, N-tert-butyl-2-(5-((4-methoxyphenyl)ethynyl)thiophen-2-yl)imidazo[1,2-a]pyrazin-3-amine hydrochloride], 5.68.
With `CC(C)(C)Nc1c(-c2ccc(C#Cc3ccccc3)s2)nc2ccc3ccccc3n12` [Example 115, N-tert-butyl-2-(5-(phenylethynyl)thiophen-2-yl)imidazo[1,2-a]quinolin-1-amine], the pIC50 was 5.11.
Turning to `Cc1cccc(C#Cc2cccc(-c3nc4cnccn4c3NC(C)(C)C)c2)n1` [Example 117, N-tert-butyl-2-(3-((6-methylpyridin-2-yl)ethynyl)phenyl)imidazo[1,2-a]pyrazin-3-amine], the pIC50 is 6.06.
On the same count and under the same terms, the result for `Cc1nc(C#Cc2ccccc2)ccc1-c1nc2cnccn2c1NC(C)(C)C` [Example 118, N-tert-butyl-2-(2-methyl-6-(phenylethynyl)pyridin-3-yl)imidazo[1,2-a]pyrazin-3-amine] reads 5.20; that for `CC(C)(C)Nc1c(-c2ccc(C#Cc3ccccn3)o2)nc2cnccn12` [Example 119, N-tert-butyl-2-(5-(pyridin-2-ylethynyl)furan-2-yl)imidazo[1,2-a]pyrazin-3-amine], 7.44.
In the case of `CC(C)(C)Nc1c(-c2ccc(C#Cc3ccccc3)s2)nc2c(C(=O)O)nccn12` [Example 120, 3-(tert-butylamino)-2-(5-(phenylethynyl)thiophen-2-yl)imidazo[1,2-a]pyrazine-8-carboxylic acid], the pIC50 was 5.44.
Consider `CC(C)(C)Nc1c(-c2ccc(C#Cc3ccc(O)cc3)s2)nc2cnccn12` [Example 121, 4-((5-(3-(tert-butylamino)imidazo[1,2-a]pyrazin-2-yl)thiophen-2-yl)ethynyl)phenol hydrochloride], for which the pIC50 is 5.60.
Still for that read-out and setting: for `CC(C)(C)Nc1c(-c2ccc(C#Cc3cccc(O)c3)s2)nc2cnccn12` [Example 122, 3-((5-(3-(tert-butylamino)imidazo[1,2-a]pyrazin-2-yl)thiophen-2-yl)ethynyl)phenol] the value was 6.89.
Still for that read-out and setting: the result for `CC(C)(C)Nc1c(-c2ccc(C#Cc3cccc(N)c3)s2)nc2cnccn12` [Example 123, 2-(5-((3-aminophenyl)ethynyl)thiophen-2-yl)-N-tert-butylimidazo[1,2-a]pyrazin-3-amine hydrochloride] reads 7.85; that for `CC(C)(C)Nc1c(-c2ccc(C#Cc3ccccc3N)s2)nc2cnccn12` [Example 124, 2-(5-((2-aminophenyl)ethynyl)thiophen-2-yl)-N-tert-butylimidazo[1,2-a]pyrazin-3-amine hydrochloride], 6.77.
Same read-out and setting: for `CC(C)(C)Nc1c(-c2ccc(C#Cc3ccccc3)s2)nc2c3ccccc3ccn12` [Example 125, N-tert-butyl-2-(5-(phenylethynyl)thiophen-2-yl)imidazo[2,1-a]isoquinolin-3-amine] the value was 5.19.
`CC(C)(C)Nc1c(-c2ccc(C#Cc3ccccc3)nc2)nc2cnccn12` [Example 126, N-tert-butyl-2-(6-(phenylethynyl)pyridin-3-yl)imidazo[1,2-a]pyrazin-3-amine] gave a pIC50 of 5.49.
The same measure, in the same setting: for `CC(C)(C)Nc1c(-c2ccc(C#Cc3ccc(N)nc3)s2)nc2cnccn12` [Example 128, 2-(5-((6-aminopyridin-3-yl)ethynyl)thiophen-2-yl)-N-tert-butylimidazo[1,2-a]pyrazin-3-amine hydrochloride] the value was 4.81; for `CC(C)(C)Nc1c(-c2ccc(C#Cc3ncccn3)s2)nc2cnccn12` [Example 129, N-tert-butyl-2-(5-(pyrimidin-2-ylethynyl)thiophen-2-yl)imidazo[1,2-a]pyrazin-3-amine hydrochloride], 7.92.
Still for that read-out and setting: the result for `Cc1ccnc(C#Cc2ccc(-c3nc4cnccn4c3NC(C)(C)C)s2)c1` [Example 130, N-tert-butyl-2-(5-((4-methylpyridin-2-yl)ethynyl)thiophen-2-yl)imidazo[1,2-a]pyrazin-3-amine hydrochloride] reads 7.43; that for `Cc1ccc(C#Cc2ccc(-c3nc4cnccn4c3NC(C)(C)C)s2)nc1` [Example 131, N-tert-butyl-2-(5-((5-methylpyridin-2-yl)ethynyl)thiophen-2-yl)imidazo[1,2-a]pyrazin-3-amine hydrochloride], 6.85; that for `CC(C)(C)Nc1c(-c2ccc(C#Cc3ccncc3)s2)nc2ccccn12` [Example 132, N-tert-butyl-2-(5-(pyridin-4-ylethynyl)thiophen-2-yl)imidazo[1,2-a]pyridin-3-amine hydrochloride], 7.80.
The same measure, in the same setting: the result for `CC(C)(C)Nc1c(-c2ccc(C#Cc3nccs3)s2)nc2cnccn12` [Example 133, N-tert-butyl-2-(5-(thiazol-2-ylethynyl)thiophen-2-yl)imidazo[1,2-a]pyrazin-3-amine] reads 7.82; that for `Nc1c(-c2ccc(C#Cc3ccccn3)s2)nc2cnccn12` [Example 134, 2-(5-(pyridin-2-ylethynyl)thiophen-2-yl)imidazo[1,2-a]pyrazin-3-amine hydrochloride], 6.24; that for `Cc1ccc(C#Cc2ccc(-c3nc4cnccn4c3NC(C)(C)C)s2)s1` [Example 135, N-tert-butyl-2-(5-((5-methylthiophen-2-yl)ethynyl)thiophen-2-yl)imidazo[1,2-a]pyrazin-3-amine hydrochloride], 5.92.
In turn, `CC(C)(C)Nc1c(-c2ccc(C#Cc3cccc(N)n3)s2)nc2cnccn12` [Example 136, 2-(5-((6-aminopyridin-2-yl)ethynyl)thiophen-2-yl)-N-tert-butylimidazo[1,2-a]pyrazin-3-amine hydrochloride] gave a negative-log IC50 (pIC50) of 4.86.
Still for that read-out and setting: the result for `Cc1ccsc1C#Cc1ccc(-c2nc3cnccn3c2NC(C)(C)C)s1` [Example 137, N-tert-butyl-2-(5-((3-methylthiophen-2-yl)ethynyl)thiophen-2-yl)imidazo[1,2-a]pyrazin-3-amine] reads 6.07.

Source of the values: patent US7420056B2, “Substituted bicyclic imidazo-3-ylamine compounds” (Gruenenthal GmbH, priority 2004, dated 2008).
